Measurements taken from PMC3222648, “Inotropic Action of the Puberty Hormone Kisspeptin in Rat, Mouse and Human: Cardiovascular Distribution and Characteristics of the Kisspeptin Receptor” (PLoS ONE, 2011).
“Also recorded” adds a separate entry of the source. Where no end group is shown, it is not given here.

Tests used:
[1] = ref [47]; cited from earlier work
[2] = system: endothelium-denuded rat aortic rings; assay: Vasoconstrictor activity in endothelium-denuded rat aorta; conditions: mean ± SEM, ET-1 n = 7, KP-10 tissues from 4 animals, KP-54 tissues from 3 animals
Description: Rat thoracic aorta was cleaned of connective tissue and cut into 4 mm rings and the endothelial layer removed by gentle rubbing. Tissues were set to a basal tension at which the maximum response to 100 mM KCl was generated and subsequent responses to kisspeptins were expressed as % of this KCl response. Aortic rings were then contracted with 10 µM phenylephrine and 1 µM ACh was added; a reduction in the phenylephrine response of <10% was taken as evidence of removal of endothelium. […] Experiments were terminated by the addition of 100 mM KCl and agonist responses were expressed as a % of this KCl maximum.
(§1) Radioligand binding study data were analyzed using the iterative, non-linear curve fitting programs EBDA and LIGAND in the KELL package (Biosoft, Cambridge, UK). Pooled KD, BMAX and Hill slopes (nH) were expressed as mean±SEM and normalized to protein concentrations. In vitro pharmacology data agonist responses were expressed as %CaCl2 response in the paced atrial tissues and %KCl in the vasoconstrictor studies and data were fitted to a four parameter logistic equation using an iterative curve-fitting program (FigSys, Biosoft, Cambridge, UK) to obtain values for potency (pD2: the negative logarithm to the base 10 of the EC50) and maximum response (EMAX: %CaCl2 or %KCl, respectively) expressed as mean±SEM. Where appropriate, values were compared by one-way analysis of variance (ANOVA). In all cases P<0.05 was considered statistically significant and n-values were the number of animals or patients from which data were obtained.

[3] = target: T1, kisspeptin receptor (Mus musculus, UniProt Q91V45); assay: Inotropic activity in mouse paced atria, wild type (Kiss1r ^+/+); conditions: % of CaCl2 maximum (8.95 mM final), mean ± SEM, n = 6, read-out: Emax (maximum positive inotropic response)
T1 construct: Paired rat or mouse atria; from tissue; host or cells: mouse paired atria, wild type
Description: (§2) Paired rat or mouse atria, or 4 mm strips of human atrial appendage, were mounted in 10 ml organ baths containing oxygenated Krebs solution at 37°C as described previously. Tension on the tissue was adjusted to 50% of that at which the maximum force was generated and then paced at 1 Hz, square-wave pulse, 5 ms duration, with the voltage just above threshold (<4.0 V). […] Experiments were terminated by the addition of 6.7 mM CaCl2 (final bath concentration 8.95 mM) and responses expressed as a % of this CaCl2 maximum.
as §1, with “In all cases P<0.05 was considered statistically significant and n-values were the number of animals or patients from which data were obtained.” left out

[4] = system: Kiss1r ^−/− atria; assay: Inotropic activity in atria of mice with targeted disruption of Kiss1r; parameters: species or system mouse
Description: as §2
as §1, with “In all cases P<0.05 was considered statistically significant and n-values were the number of animals or patients from which data were obtained.” left out

[5] = target: kisspeptin receptor (Rattus norvegicus, UniProt Q924U1); assay: Inotropic activity in rat paced paired atria; parameters: Paired rat or mouse atria; from tissue; host or cells: rat paired atria
Description: (§3) Paired rat or mouse atria, or 4 mm strips of human atrial appendage, were mounted in 10 ml organ baths containing oxygenated Krebs solution at 37°C as described previously. […] Experiments were terminated by the addition of 6.7 mM CaCl2 (final bath concentration 8.95 mM) and responses expressed as a % of this CaCl2 maximum. Radioligand binding study data were analyzed using the iterative, non-linear curve fitting programs EBDA and LIGAND in the KELL package (Biosoft, Cambridge, UK). Pooled KD, BMAX and Hill slopes (nH) were expressed as mean±SEM and normalized to protein concentrations. […] Where appropriate, values were compared by one-way analysis of variance (ANOVA). In all cases P<0.05 was considered statistically significant and n-values were the number of animals or patients from which data were obtained.

[6] = target: T2, kisspeptin receptor (Homo sapiens, UniProt Q969F8); assay: Inotropic activity in human paced atrial strips; conditions: human atrial strips
T2 construct: cryostat-cut sections of human (15 µm) or rat (10 µm) heart; from tissue; host or cells: human right atria (control, dilated cardiomyopathy, ischaemic heart disease), cryostat sections
Description: as §3

[7] = system: human coronary artery and umbilical vein; conditions: ref [31]; cited from earlier work
Excerpt: We have recently identified a further role for kisspeptin as a vasoactive peptide. We detected kisspeptin and kisspeptin receptor expression in human vasculature, and intriguingly found this to be restricted to the aorta, coronary artery and umbilical vein, vessels with the same developmental origin. […] However, to our knowledge, a cardiac role of kisspeptin has not yet been investigated in man, nor any cardiovascular effects ...

Sequence of kisspeptin receptor (Rattus norvegicus, UniProt Q924U1) (Q924U1 whole entry): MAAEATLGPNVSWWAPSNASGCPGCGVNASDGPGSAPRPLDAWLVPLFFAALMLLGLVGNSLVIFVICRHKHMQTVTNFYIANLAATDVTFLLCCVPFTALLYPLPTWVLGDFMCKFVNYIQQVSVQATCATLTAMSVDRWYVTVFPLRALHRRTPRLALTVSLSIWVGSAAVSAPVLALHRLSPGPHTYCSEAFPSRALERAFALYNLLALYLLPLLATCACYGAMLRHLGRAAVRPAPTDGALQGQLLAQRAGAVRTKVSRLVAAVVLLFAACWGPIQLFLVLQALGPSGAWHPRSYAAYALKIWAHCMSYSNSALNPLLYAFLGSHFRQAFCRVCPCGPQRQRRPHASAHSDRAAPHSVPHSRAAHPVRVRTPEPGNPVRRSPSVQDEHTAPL
T2 sequence (Q969F8 whole entry): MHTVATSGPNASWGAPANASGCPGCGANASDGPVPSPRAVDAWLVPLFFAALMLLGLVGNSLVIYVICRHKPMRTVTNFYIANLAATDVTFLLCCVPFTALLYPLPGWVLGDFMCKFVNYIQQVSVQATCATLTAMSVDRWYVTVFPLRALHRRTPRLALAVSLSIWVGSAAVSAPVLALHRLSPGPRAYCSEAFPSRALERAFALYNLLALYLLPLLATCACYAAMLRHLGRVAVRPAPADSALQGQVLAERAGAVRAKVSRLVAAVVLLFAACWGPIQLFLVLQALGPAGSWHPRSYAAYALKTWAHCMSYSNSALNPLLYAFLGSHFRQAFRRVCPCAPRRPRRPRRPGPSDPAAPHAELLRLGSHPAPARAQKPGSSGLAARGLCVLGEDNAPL
T1 sequence (Q91V45 whole entry): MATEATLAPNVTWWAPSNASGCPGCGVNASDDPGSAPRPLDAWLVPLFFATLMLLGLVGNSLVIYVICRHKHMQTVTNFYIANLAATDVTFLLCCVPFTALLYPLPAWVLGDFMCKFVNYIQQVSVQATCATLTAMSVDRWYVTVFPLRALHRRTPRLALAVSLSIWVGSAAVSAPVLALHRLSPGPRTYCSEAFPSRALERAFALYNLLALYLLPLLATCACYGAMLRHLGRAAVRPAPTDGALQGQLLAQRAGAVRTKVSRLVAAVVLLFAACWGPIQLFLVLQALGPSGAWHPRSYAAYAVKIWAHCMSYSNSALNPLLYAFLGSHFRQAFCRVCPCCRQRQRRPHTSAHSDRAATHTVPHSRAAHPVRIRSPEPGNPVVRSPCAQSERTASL

Row | Emax [3] [%] | lusitropic effects ([5]; rat atria, half time to peak force and half time to relaxation) | Emax ([5]; read-out: EMAX (maximum positive inotropic response)) [%] | Emax ([6]; % of CaCl2 maximum (8.95 mM final), mean ± SEM, n = 5, read-out: EMAX (maximum positive inotropic response)) [%] | lusitropic effects ([6]; half time to peak force and half time to relaxation) | Compound | anti-angiogenic activity [1] | EMAX (maximum vasoconstrictor response) ([2]; % of 100 mM KCl maximum, endothelium-denuded rat aorta) [% KCl] | pD2 (vasoconstriction) ([2]; endothelium-denuded rat thoracic aortic rings, KP-10, KP-54 10^−12–3×10^−9 M, ET-1 10^−10–3×10^−7 M) | inotropic response in Kiss1r ^−/− atria [4] | vasoconstrictor activity [7]
1 | 26 ± 4 | Lusitropic effects were not observed | 14 ± 2 | 82 ± 13 | Lusitropic effects were not observed | CC[C@H](C)[C@H](NC(=O)[C@H](CCC(N)=O)NC(=O)[C@H](CCCNC(=N)N)NC(=O)[C@H](CO)NC(=O)[C@H](Cc1c[nH]cn1)NC(=O)[C@@H]1CCCN1C(=O)[C@H](C)NC(=O)[C@H](CO)NC(=O)[C@H](CC(C)C)NC(=O)CNC(=O)[C@@H]1CCCN1C(=O)[C@H](CCC(N)=O)NC(=O)[C@H](CCC(N)=O)NC(=O)[C@H](CCCNC(=N)N)NC(=O)[C@H](CO)NC(=O)CNC(=O)[C@H](CO)NC(=O)[C@H](CO)NC(=O)[C@H](CCC(=O)O)NC(=O)[C@@H]1CCCN1C(=O)[C@@H]1CCCN1C(=O)[C@@H]1CCCN1C(=O)[C@H](CO)NC(=O)[C@H](CC(C)C)NC(=O)[C@H](CO)NC(=O)[C@@H](NC(=O)CN)[C@@H](C)O)C(=O)N1CCC[C@H]1C(=O)N[C@@H](C)C(=O)N1CCC[C@H]1C(=O)N[C@@H](CCC(N)=O)C(=O)NCC(=O)N[C@@H](C)C(=O)N[C@H](C(=O)N[C@@H](CC(C)C)C(=O)N[C@H](C(=O)N[C@@H](CCC(N)=O)C(=O)N[C@@H](CCCNC(=N)N)C(=O)N[C@@H](CCC(=O)O)C(=O)N[C@@H](CCCCN)C(=O)N[C@@H](CC(=O)O)C(=O)N[C@@H](CC(C)C)C(=O)N1CCC[C@H]1C(=O)N[C@@H](CC(N)=O)C(=O)N[C@@H](Cc1ccc(O)cc1)C(=O)N[C@@H](CC(N)=O)C(=O)N[C@@H](Cc1c[nH]c2ccccc12)C(=O)N[C@@H](CC(N)=O)C(=O)N[C@@H](CO)C(=O)N[C@@H](Cc1ccccc1)C(=O)NCC(=O)N[C@@H](CC(C)C)C(=O)N[C@@H](CCCNC(=N)N)C(=O)N[C@@H](Cc1ccccc1)C(N)=O)C(C)C)C(C)C [KP-54] | anti-angiogenic | 97±1 | 10.47±0.26 | lack of effect; also recorded: no inotropic response | 
2 |  |  |  |  |  | kisspeptin: Kisspeptin, or KP-54; also used generically for the endogenous peptides and kisspeptin-like immunoreactivity (GTSLSPPPESSGSPQQPGLSAPHSRQIPAPQGAVLVQREKDLPNYNWNSFGLRF; ends and bridges not checked; UniProt Q15726 68-121, looked up) |  |  |  | No response | potent vasoconstrictor
